According to patent US9073855B2, “BCL-2 selective apoptosis-inducing agents for the treatment of cancer and immune diseases” (AbbVie Inc., priority 2008, dated 2015):

Experiments:
[1] = biological target: GST-Bcl-2 (Homo sapiens, UniProt P10415); experiment: TR-FRET binding assay, GST-Bcl-2 with F-Bak peptide probe; conditions: TR-FRET Binding Affinity, GST-Bcl-2, F-Bak peptide probe
Method in brief: (§1)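 Displacement of a fluorescein-labelled Bak peptide from the GST-tagged protein was followed by time-resolved FRET with a terbium anti-GST donor after 3 h incubation at room temperature. Inhibition constants were calculated with Wang's equation.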

[2] = biological target: GST-Bcl-XL (Homo sapiens, UniProt Q07817); experiment: TR-FRET binding assay, GST-Bcl-XL with F-Bak peptide probe; conditions: TR-FRET Binding Affinity, GST-Bcl-XL, F-Bak peptide probe
Method in brief: as §1

[3] = tested on: FL5.12/Bcl-2 cells; experiment: FL5.12/Bcl-2 cell viability assay under IL-3 withdrawal (CellTitre Glo); assay type: cell-based, murine; conditions: Mus musculus, IL-3 withdrawn 48 hrs, then 24 hrs with compound
Method in brief: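 IL-3 withdrawal 48 hrs (no WEHI-3B medium), then compound 24 hrs, various concentrations; 37° C, 5% CO2; readout CellTitre Glo. Murine prolymphocytic FL5.12 stably overexpressing Bcl-2.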

GST-Bcl-2, sequence (P10415 whole entry): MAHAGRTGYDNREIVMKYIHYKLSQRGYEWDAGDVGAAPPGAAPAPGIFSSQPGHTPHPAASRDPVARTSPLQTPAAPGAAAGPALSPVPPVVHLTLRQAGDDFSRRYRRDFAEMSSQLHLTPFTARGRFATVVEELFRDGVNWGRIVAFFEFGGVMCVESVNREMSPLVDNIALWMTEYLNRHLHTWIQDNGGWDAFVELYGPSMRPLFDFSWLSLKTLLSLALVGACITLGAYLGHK
GST-Bcl-XL, sequence (Q07817 whole entry): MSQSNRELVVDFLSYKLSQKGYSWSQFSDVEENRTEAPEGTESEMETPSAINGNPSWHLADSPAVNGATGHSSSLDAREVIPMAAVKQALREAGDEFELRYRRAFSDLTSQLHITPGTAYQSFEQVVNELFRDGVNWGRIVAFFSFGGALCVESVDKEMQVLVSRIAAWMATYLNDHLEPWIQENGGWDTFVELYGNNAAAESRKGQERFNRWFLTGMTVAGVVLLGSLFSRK

SMILES | Ki [1] [nM] | Ki [2] [nM] | EC50 [3] [nM]
CC(=O)N1CCC(Nc2ccc(S(=O)(=O)NC(=O)c3ccc(N4CCN(CC5=C(c6ccc(Cl)cc6)CC(C)(C)CC5)CC4)cc3Oc3ccc4[nH]ccc4c3)cc2[N+](=O)[O-])CC1 [Example 334, N-({4-[(1-acetylpiperidin-4-yl)amino]-3-nitrophenyl}sulfonyl)-4-(4-{[2-(4-chlorophenyl)-4,4-dimethylcyclohex-1-en-1-yl]methyl}piperazin-1-yl)-2-(1H-indol-5-yloxy)benzamide] | 0.179 | > 660 | 65.9
CC1(C)CCC(CN2CCN(c3ccc(C(=O)NS(=O)(=O)c4ccc(NC5CCN(S(C)(=O)=O)CC5)c([N+](=O)[O-])c4)c(Oc4ccc5[nH]ccc5c4)c3)CC2)=C(c2ccc(Cl)cc2)C1 [Example 335, 4-(4-{[2-(4-chlorophenyl)-4,4-dimethylcyclohex-1-en-1-yl]methyl}piperazin-1-yl)-2-(1H-indol-5-yloxy)-N-[(4-{[1-(methylsulfonyl)piperidin-4-yl]amino}-3-nitrophenyl)sulfonyl]benzamide] | 0.438 | > 660 | 39
CC1(C)CCC(CN2CCN(c3ccc(C(=O)NS(=O)(=O)c4ccc(NCC5COCCO5)c([N+](=O)[O-])c4)c(Oc4ccc5[nH]ccc5c4)c3)CC2)=C(c2ccc(Cl)cc2)C1 (stereo not drawn) [Example 336, 4-(4-{[2-(4-chlorophenyl)-4,4-dimethylcyclohex-1-en-1-yl]methyl}piperazin-1-yl)-N-({4-[(1,4-dioxan-2-ylmethyl)amino]-3-nitrophenyl}sulfonyl)-2-(1H-indol-5-yloxy)benzamide] | 0.105 | 242 | 7.49
CC(=O)N1CCC(Nc2ccc(S(=O)(=O)NC(=O)c3ccc(N4CCN(CC5=C(c6ccc(Cl)cc6)CC(C)(C)CC5)CC4)cc3Oc3cccc4[nH]ccc34)cc2[N+](=O)[O-])CC1 [Example 337, N-({4-[(1-acetylpiperidin-4-yl)amino]-3-nitrophenyl}sulfonyl)-4-(4-{[2-(4-chlorophenyl)-4,4-dimethylcyclohex-1-en-1-yl]methyl}piperazin-1-yl)-2-(1H-indol-4-yloxy)benzamide] | 0.535 | > 660 | 124
CC1(C)CCC(CN2CCN(c3ccc(C(=O)NS(=O)(=O)c4ccc(NC5CCN(S(C)(=O)=O)CC5)c([N+](=O)[O-])c4)c(Oc4cccc5[nH]ccc45)c3)CC2)=C(c2ccc(Cl)cc2)C1 [Example 338, 4-(4-{[2-(4-chlorophenyl)-4,4-dimethylcyclohex-1-en-1-yl]methyl}piperazin-1-yl)-2-(1H-indol-4-yloxy)-N-[(4-{[1-(methylsulfonyl)piperidin-4-yl]amino}-3-nitrophenyl)sulfonyl]benzamide] | 0.403 | > 660 | 71.1
O=C(NS(=O)(=O)c1ccc(NCC2CCOCC2)c([N+](=O)[O-])c1)c1ccc(N2CCN(Cc3ccc(C(F)(F)F)cc3-c3ccc(Cl)cc3)CC2)cc1Oc1ccc2[nH]ccc2c1 [Example 339, 4-(4-{[4′-chloro-5-(trifluoromethyl)-1,1′-biphenyl-2-yl]methyl}piperazin-1-yl)-2-(1H-indol-5-yloxy)-N-({3-nitro-4-[(tetrahydro-2H-pyran-4-ylmethyl)amino]phenyl}sulfonyl)benzamide] | 14.1 | > 660 | > 500
O=C(NS(=O)(=O)c1ccc(OCC2CCOCC2)c([N+](=O)[O-])c1)c1ccc(N2CCN(Cc3ccc(C(F)(F)F)cc3-c3ccc(Cl)cc3)CC2)cc1Oc1ccc2[nH]ccc2c1 [Example 340, 4-(4-{[4′-chloro-5-(trifluoromethyl)-1,1′-biphenyl-2-yl]methyl}piperazin-1-yl)-2-(1H-indol-5-yloxy)-N-{[3-nitro-4-(tetrahydro-2H-pyran-4-ylmethoxy)phenyl]sulfonyl}benzamide] | 7.59 | > 660 | > 500
CC(C)(C)c1ccc(CN2CCN(c3ccc(C(=O)NS(=O)(=O)c4ccc(NCC5CCOCC5)c([N+](=O)[O-])c4)c(Oc4ccc5[nH]ccc5c4)c3)CC2)c(-c2ccc(Cl)cc2)c1 [Example 341, 4-{4-[(5-tert-butyl-4′-chloro-1,1′-biphenyl-2-yl)methyl]piperazin-1-yl}-2-(1H-indol-5-yloxy)-N-({3-nitro-4-[(tetrahydro-2H-pyran-4-ylmethyl)amino]phenyl}sulfonyl)benzamide] | 13 | > 660 | > 500
CC(C)(C)c1ccc(CN2CCN(c3ccc(C(=O)NS(=O)(=O)c4ccc(OCC5CCOCC5)c([N+](=O)[O-])c4)c(Oc4ccc5[nH]ccc5c4)c3)CC2)c(-c2ccc(Cl)cc2)c1 [Example 342, 4-{4-[(5-tert-butyl-4′-chloro-1,1′-biphenyl-2-yl)methyl]piperazin-1-yl}-2-(1H-indol-5-yloxy)-N-{[3-nitro-4-(tetrahydro-2H-pyran-4-ylmethoxy)phenyl]sulfonyl}benzamide] | 25.8 | > 660 | > 500
CC1(C)CCC(CN2CCN(c3ccc(C(=O)NS(=O)(=O)c4ccc(NCC(F)(F)F)c([N+](=O)[O-])c4)c(Oc4cccc5[nH]ccc45)c3)CC2)=C(c2ccc(Cl)cc2)C1 [Example 343, 4-(4-{[2-(4-chlorophenyl)-4,4-dimethylcyclohex-1-en-1-yl]methyl}piperazin-1-yl)-2-(1H-indol-4-yloxy)-N-({3-nitro-4-[(2,2,2-trifluoroethyl)amino]phenyl}sulfonyl)benzamide] | 0.576 | > 660 | 54.9
CC1(C)CCC(CN2CCN(c3ccc(C(=O)NS(=O)(=O)c4ccc(NCC(F)(F)F)c([N+](=O)[O-])c4)c(Oc4ccc5[nH]ccc5c4)c3)CC2)=C(c2ccc(Cl)cc2)C1 [Example 344, 4-(4-{[2-(4-chlorophenyl)-4,4-dimethylcyclohex-1-en-1-yl]methyl}piperazin-1-yl)-2-(1H-indol-5-yloxy)-N-({3-nitro-4-[(2,2,2-trifluoroethyl)amino]phenyl}sulfonyl)benzamide] | 0.284 | 447 | 71.5
CC1(C)CCC(CN2CCN(c3ccc(C(=O)NS(=O)(=O)c4cccc(C(=O)NCC5CCOCC5)c4)c(Oc4ccc5[nH]ccc5c4)c3)CC2)=C(c2ccc(Cl)cc2)C1 [Example 345, 4-(4-{[2-(4-chlorophenyl)-4,4-dimethylcyclohex-1-en-1-yl]methyl}piperazin-1-yl)-2-(1H-indol-5-yloxy)-N-[(3-{[(tetrahydro-2H-pyran-4-ylmethyl)amino]carbonyl}phenyl)sulfonyl]benzamide] | 1.15 | > 660 | > 500
CC1(C)CCC(CN2CCN(c3ccc(C(=O)NS(=O)(=O)c4ccc(OC[C@H]5COCCO5)c([N+](=O)[O-])c4)c(Oc4ccc5[nH]ccc5c4)c3)CC2)=C(c2ccc(Cl)cc2)C1 [Example 346, 4-(4-{[2-(4-chlorophenyl)-4,4-dimethylcyclohex-1-en-1-yl]methyl}piperazin-1-yl)-N-({4-[(2R)-1,4-dioxan-2-ylmethoxy]-3-nitrophenyl}sulfonyl)-2-(1H-indol-5-yloxy)benzamide] | 0.018 | 204 | 17.5
CC1(C)CCC(CN2CCN(c3ccc(C(=O)NS(=O)(=O)c4ccc(OC[C@@H]5COCCO5)c([N+](=O)[O-])c4)c(Oc4ccc5[nH]ccc5c4)c3)CC2)=C(c2ccc(Cl)cc2)C1 [Example 347, 4-(4-{[2-(4-chlorophenyl)-4,4-dimethylcyclohex-1-en-1-yl]methyl}piperazin-1-yl)-N-({4-[(2S)-1,4-dioxan-2-ylmethoxy]-3-nitrophenyl}sulfonyl)-2-(1H-indol-5-yloxy)benzamide] | 0.243 | 306 | 46.8
CC1(C)CCC(CN2CCN(c3ccc(C(=O)NS(=O)(=O)c4ccc(NCCCN5CCOCC5)c(S(=O)(=O)C(F)(F)F)c4)c(Oc4ccc5[nH]ccc5c4)c3)CC2)=C(c2ccc(Cl)cc2)C1 [Example 348, 4-(4-{[2-(4-chlorophenyl)-4,4-dimethylcyclohex-1-en-1-yl]methyl}piperazin-1-yl)-2-(1H-indol-5-yloxy)-N-({4-[(3-morpholin-4-ylpropyl)amino]-3-[(trifluoromethyl)sulfonyl]phenyl}sulfonyl)benzamide] | 0.302 | 29.3 | 87.2
CC1(C)CCC(CN2CCN(c3ccc(C(=O)NS(=O)(=O)c4ccc(NCCCN5CCOCC5)c(S(=O)(=O)C(F)(F)F)c4)c(Oc4cccc5[nH]ccc45)c3)CC2)=C(c2ccc(Cl)cc2)C1 [Example 349, 4-(4-{[2-(4-chlorophenyl)-4,4-dimethylcyclohex-1-en-1-yl]methyl}piperazin-1-yl)-2-(1H-indol-4-yloxy)-N-({4-[(3-morpholin-4-ylpropyl)amino]-3-[(trifluoromethyl)sulfonyl]phenyl}sulfonyl)benzamide] | 0.467 | 24.2 | 146
CC1(C)CCC(CN2CCN(c3ccc(C(=O)NS(=O)(=O)c4cnc(NCC5CCOCC5)c(Br)c4)c(Oc4ccc5[nH]ccc5c4)c3)CC2)=C(c2ccc(Cl)cc2)C1 [Example 350, N-({5-bromo-6-[(tetrahydro-2H-pyran-4-ylmethyl)amino]pyridin-3-yl}sulfonyl)-4-(4-{[2-(4-chlorophenyl)-4,4-dimethylcyclohex-1-en-1-yl]methyl}piperazin-1-yl)-2-(1H-indol-5-yloxy)benzamide] | 5.97 | > 660 | 311
